Reference: patent publication US20100215618A1, “NOVEL COMPOUNDS - 644” (Arrow Therapeutics Limited, priority 2009, published 2010)
Like-named read-outs stand apart in the source and are kept apart here.

System: HCV replicon cells Huh 9B (genotype 1b)
Test: 1b Replicon Assay (luciferase readout)
Type: cell-based
Settings: Hepatitis C virus, Huh 9B replicon cells, 72 h, luciferase activity
Procedure: HCV replicon cells Huh 9B (ReBlikon), containing the firefly luciferase-ubiquitin-neomycin phosphotransferase fusion protein and EMCV-IRES driven HCV polyprotein with cell culture adaptive mutations.
Cells were cultured at 37° C./5% CO2 and split twice a week. G418 at 0.5 mg/ml was added to the culture medium but not the assay medium.
The culture medium consisted of DMEM with […] glucose and Glutamax (Gibco 61965-026) supplemented with 1× non-essential amino acids (Invitrogen 11140-035), 0.5 mg/ml G418 (Invitrogen 10131-027) and 10% Australian foetal calf serum (Invitrogen 10099-141).
Replicon cells were trypsinised and counted. Cells were diluted to 100,000 cells/ml and 100 μl used to seed one opaque white 96-well plate (for the replicon assay) and one flat-bottomed clear plate (for the tox assay) for every five compounds to be tested for IC50. Wells G12 and H12 were left empty in the clear plate as the blank. Plates were then incubated at 37° C./5% CO2 for 24 h.
On the following day compound dilutions were prepared in medium at twice their desired final concentration in a clear round bottomed plate. All dilutions have a final DMSO concentration of 1%.
Controls and compounds were transferred from the dilution plates to the assay plates (containing the cells) at 100 μl/well in duplicate wells.
Exception: no compound was added to wells A1 and A2 of either plate and 100 μl of 1% DMSO was added to these instead. Plates were then incubated at 37° C./5% CO2 for 72 h.
At the end of the incubation time, the cells in the white plate were washed in PBS (100 μL per well) and dried by tapping before addition of 204 per well of lysis buffer (25 mM tris-phosphate, 8 mM MgCl2, 1 mM DTT, 1% Triton X-100, 15% glycerol; pH to 7.8 using KH2PO4 prior to Triton X-100 and glycerol addition). Aliquots of substrate (23.5 mM beetle luciferin (Promega E1603), 26 mM ATP (Sigma O-2060) in […] Tris buffer pH 7.8) were stored at −80° C. Prior to use, required amount of luciferin was thawed and diluted 1:50 in luciferase assay buffer (20 mM Tricine (Sigma T-0377), 1.07 mM magnesium carbonate hydroxide (Sigma M-5671), 0.1 mM EDTA (Sigma E-5134), 2.67 mM MgSO4(BDH 101514Y), 33.3 mM dithiothreitol (Sigma 150460) pH 7.8).
After 5-60 min incubation in lysis buffer at room temperature, a plate was inserted into the luminometer and 100 μl luciferase assay reagent was added by the injector of the luminometer. The signal was measured using a 1 second delay followed by a 4 second measurement programme. The IC50, the concentration of the drug required for reducing the replicon level by 50% in relation to the untreated cell control value, was calculated from the plot of the percentage reduction of the luciferase activity vs. drug concentration.

[1] = read-out: pIC50 1b Replicon (converted)

Row | Compound | IC50 (read-out: HCV IC50 1b Replicon) [nM] | IC50 [1] [nM]
1 | COC(=O)N[C@H](C(=O)N1CCC[C@H]1c1ncc(-c2cccc(-c3ccc(C(=O)Nc4ccc(CN5CCS(=O)(=O)CC5)cc4)cc3)c2)[nH]1)c1ccccc1 [Example 36, Methyl N-[(1S)-2-[(2S)-2-[5-[3-[4-[[4-[(1,1-dioxo-1,4-thiazinan-4-yl)methyl]phenyl]carbamoyl]phenyl]phenyl]-1H-imidazol-2-yl]pyrrolidin-1-yl]-2-oxo-1-phenyl-ethyl]carbamate] | 15.6 | 15.5
2 | COC(=O)N[C@H](C(=O)N1CCC[C@@H]1c1ncc(-c2ccc(-c3ccc(C(=O)Nc4ccc(CN5CCS(=O)(=O)CC5)cc4)cc3)cc2)[nH]1)c1ccccc1 [Example 23, Methyl N-[(1S)-2-[(2R)-2-[5-[4-[4-[[4-[(1,1-dioxo-1,4-thiazinan-4-yl)methyl]phenyl]carbamoyl]phenyl]phenyl]-1H-imidazol-2-yl]pyrrolidin-1-yl]-2-oxo-1-phenyl-ethyl]carbamate] | 109 | 110
3 | CN(C)[C@@H](C(=O)N1CCC[C@@H]1c1ncc(-c2ccc(-c3ccc(C(=O)Nc4ccc(CN5CCS(=O)(=O)CC5)cc4)cc3)cc2)[nH]1)c1ccccc1 [Example 26, 4-[4-[2-[(2R)-1-[(2R)-2-(dimethylamino)-2-phenyl-acetyl]pyrrolidin-2-yl]-1H-imidazol-5-yl]phenyl]-N-[4-[(1,1-dioxo-1,4-thiazinan-4-yl)methyl]phenyl]benzamide] | 55.7 | 56.2
4 | COC(=O)N[C@@H](C(=O)N1CCC[C@H]1c1ncc(-c2cccc(-c3ccc(C(=O)Nc4ccc(CN5CCS(=O)(=O)CC5)cc4)cc3)c2)[nH]1)c1ccccc1 [Example 37, Methyl N-[(1R)-2-[(2S)-2-[5-[3-[4-[[4-[(1,1-dioxo-1,4-thiazinan-4-yl)methyl]phenyl]carbamoyl]phenyl]phenyl]-1H-imidazol-2-yl]pyrrolidin-1-yl]-2-oxo-1-phenyl-ethyl]carbamate] | 21.5 | 21.4
5 | CCN(CC)[C@@H](C(=O)N1CCC[C@@H]1c1ncc(-c2ccc(-c3ccc(C(=O)Nc4ccc(CN5CCS(=O)(=O)CC5)cc4)cc3)cc2)[nH]1)c1ccccc1 [Example 25, 4-[4-[2-[(2R)-1-[(2R)-2-(diethylamino)-2-phenyl-acetyl]pyrrolidin-2-yl]-1H-imidazol-5-yl]phenyl]-N-[4-[(1,1-dioxo-1,4-thiazinan-4-yl)methyl]phenyl]benzamide] | 77.9 | 77.6
6 | COC(=O)N[C@H](C(=O)N1CCC[C@H]1c1ncc(-c2cccc(-c3ccc(C(=O)Nc4ccc(CN5CCS(=O)(=O)CC5)cc4)cc3)c2)[nH]1)C(C)C [Example 33, Methyl N-[(1S)-1-[(2S)-2-[5-[3-[4-[[4-[(1,1-dioxo-1,4-thiazinan-4-yl)methyl]phenyl]carbamoyl]phenyl]phenyl]-1H-imidazol-2-yl]pyrrolidine-1-carbonyl]-2-methyl-propyl]carbamate] | 159 | 158
7 | COC(=O)N[C@@H](C)C(=O)N1CCC[C@H]1c1ncc(-c2cccc(-c3ccc(C(=O)Nc4ccc(CN5CCS(=O)(=O)CC5)cc4)cc3)c2)[nH]1 [Example 34, Methyl N-[(1S)-2-[(2S)-2-[5-[3-[4-[[4-[(1,1-dioxo-1,4-thiazinan-4-yl)methyl]phenyl]carbamoyl]phenyl]phenyl]-1H-imidazol-2-yl]pyrrolidin-1-yl]-1-methyl-2-oxo-ethyl]carbamate] | 252 | 251
8 | COC(=O)N[C@H](C(=O)N1CCC[C@H]1c1ncc(-c2cccc(-c3ccc(C(=O)Nc4ccc(CN5CCS(=O)(=O)CC5)cc4)cc3)c2)[nH]1)C(C)(C)C [Example 35, Methyl N-[(1S)-1-[(2S)-2-[5-[3-[4-[[4-[(1,1-dioxo-1,4-thiazinan-4-yl)methyl]phenyl]carbamoyl]phenyl]phenyl]-1H-imidazol-2-yl]pyrrolidine-1-carbonyl]-2,2-dimethyl-propyl]carbamate] | 129 | 129
9 | COC(=O)N[C@@H](C(=O)N1CCC[C@@H]1c1ncc(-c2ccc(-c3ccc(C(=O)Nc4ccc(CN5CCS(=O)(=O)CC5)cc4)cc3)cc2)[nH]1)c1ccccc1 [Example 24, Methyl N-[(1R)-2-[(2R)-2-[5-[4-[4-[[4-[(1,1-dioxo-1,4-thiazinan-4-yl)methyl]phenyl]carbamoyl]phenyl]phenyl]-1H-imidazol-2-yl]pyrrolidin-1-yl]-2-oxo-1-phenyl-ethyl]carbamate] | 101 | 102
